Test results as given in PubChem BioAssay AID330 (DTP/NCI, 2004).
Where “and” joins values, the source holds several entries; their conditions need not be identical. Equal entries are not always repeated. Inconclusive results and toxic doses are left out. How the source made its calls: active means survival T/C of 150% or more; inactive means T/C below 125% in these data.

Test system: P388 leukemia ip, CD2F1 mice, survival T/C
Assay: NCI In Vivo Anticancer Drug Screen. Data for tumor model P388 Leukemia (intraperitoneal) in CD2F1 (CDF1) mice
Details: endpoint: median survival time, higher = longer survival
Method in brief: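 Mice carrying the transplanted tumor received test compound or vehicle. Survival was recorded in each group, and the value is the treated-group measurement divided by that of the vehicle-treated control group.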

[1] = dose: 50.0 mg/kg/injection, schedule: Q01DX009 (ip), vehicle: saline with Tween-80
[2] = dose: 50.0 mg/kg/injection, schedule: Q01DX009 (ip), vehicle: Klucel (hydroxypropylcellulose) (HPC)
[3] = dose: 100.0 mg/kg/injection, schedule: Q01DX009 (ip), vehicle: Klucel (hydroxypropylcellulose) (HPC)
[4] = dose: 200.0 mg/kg/injection, schedule: Q01DX009 (ip), vehicle: Klucel (hydroxypropylcellulose) (HPC)
[5] = dose: 50.0 mg/kg/injection, schedule: Q01DX005 (ip), vehicle: Klucel (hydroxypropylcellulose) (HPC)
[6] = dose: 100.0 mg/kg/injection, schedule: Q01DX005 (ip), vehicle: Klucel (hydroxypropylcellulose) (HPC)

Measured: T/C

CC1OS(=O)(=O)C=C1Br (centres undefined)
inactive: dose: 100.0 mg/kg/injection, schedule: Q04DX003 (ip), vehicle: saline with Tween-80 108 % of control | dose: 200.0 mg/kg/injection, schedule: Q04DX003 (ip), vehicle: saline with Tween-80 97 % of control | dose: 400.0 mg/kg/injection, schedule: Q04DX003 (ip), vehicle: saline with Tween-80 89 % of control

CC(C)CN=C(N)Nc1cccc(NC(=O)Nc2ccc(Cl)cc2)c1
inactive: dose: 12.5 mg/kg/injection, schedule: Q01DX009 (ip), vehicle: saline with Tween-80 92 % of control | dose: 25.0 mg/kg/injection, schedule: Q01DX009 (ip), vehicle: saline with Tween-80 86 % of control | [1] 109 % of control and 91 % of control

Cc1c2c(ccc3ccccc32)c[n+]2ccccc12
inactive: dose: 6.25 mg/kg/injection, schedule: Q04DX003 (ip), vehicle: other 105 % of control | dose: 6.25 mg/kg/injection, schedule: Q04DX003 (ip), vehicle: saline 109 % of control | dose: 12.5 mg/kg/injection, schedule: Q04DX003 (ip), vehicle: other 105 % of control | dose: 12.5 mg/kg/injection, schedule: Q04DX003 (ip), vehicle: saline 109 % of control

Cc1ccc(C(=O)CS(=O)(=O)c2ccc(C)cc2)cc1
inactive: [2] 101 % of control | [3] 98 % of control | [4] 96 % of control

COc1nc(C(Br)Br)c([N+](=O)[O-])c(N2CCOCC2)n1
inactive: dose: 25.0 mg/kg/injection, schedule: Q01DX005 (ip), vehicle: Klucel (hydroxypropylcellulose) (HPC) 109 % of control | [5] 101 % of control | [6] 87 % of control

CNC(=S)c1cccc(-c2ccccn2)n1
inactive: dose: 12.5 mg/kg/injection, schedule: Q04DX003 (ip), vehicle: Klucel (hydroxypropylcellulose) (HPC) 104 % of control | dose: 25.0 mg/kg/injection, schedule: Q04DX003 (ip), vehicle: Klucel (hydroxypropylcellulose) (HPC) 113 % of control | dose: 50.0 mg/kg/injection, schedule: Q04DX003 (ip), vehicle: Klucel (hydroxypropylcellulose) (HPC) 108 % of control and 91 % of control

OC1Cc2ccccc2CC1NC1CCCCC1 (centres undefined)
inactive: dose: 50.0 mg/kg/injection, schedule: Q01DX005 (ip), vehicle: saline 108 % of control | dose: 100.0 mg/kg/injection, schedule: Q01DX005 (ip), vehicle: saline 98 % of control

Cc1ccc2c(O)c3c(cc2c1O)C(=O)c1ccccc1C3=O
inactive: dose: 50.0 mg/kg/injection, schedule: Q01DX005 (ip), vehicle: saline with Tween-80 100 % of control | dose: 100.0 mg/kg/injection, schedule: Q01DX005 (ip), vehicle: saline with Tween-80 107 % of control | dose: 200.0 mg/kg/injection, schedule: Q01DX005 (ip), vehicle: saline with Tween-80 109 % of control

C=CCCC(=O)CCCC(=O)O[C@@H]1[C@@H]2[C@H](CC1(C)C)[C@H](O)[C@@]13O[C@@H]1[C@H](O)[C@@]1(CO1)[C@@]23C
inactive: dose: 6.2 micrograms/kg/injection, schedule: Q01DX009 (ip), vehicle: saline + alcohol 98 % of control | dose: 6.3 micrograms/kg/injection, schedule: Q01DX009 (ip), vehicle: Klucel (hydroxypropylcellulose) (HPC) 110 % of control | dose: 12.5 micrograms/kg/injection, schedule: Q01DX009 (ip), vehicle: Klucel (hydroxypropylcellulose) (HPC) 110 % of control | dose: 12.5 micrograms/kg/injection, schedule: Q01DX009 (ip), vehicle: saline + alcohol 101 % of control | dose: 25.0 micrograms/kg/injection, schedule: Q01DX005 (ip), vehicle: Klucel (hydroxypropylcellulose) (HPC) 100 % of control | dose: 25.0 micrograms/kg/injection, schedule: Q01DX009 (ip), vehicle: Klucel (hydroxypropylcellulose) (HPC) 100 % of control | dose: 25.0 micrograms/kg/injection, schedule: Q01DX009 (ip), vehicle: saline + alcohol 98 % of control | dose: 50.0 micrograms/kg/injection, schedule: Q01DX005 (ip), vehicle: Klucel (hydroxypropylcellulose) (HPC) 101 % of control | dose: 50.0 micrograms/kg/injection, schedule: Q01DX009 (ip), vehicle: Klucel (hydroxypropylcellulose) (HPC) 98 % of control | dose: 50.0 micrograms/kg/injection, schedule: Q01DX009 (ip), vehicle: saline + alcohol 97 % of control | dose: 100.0 micrograms/kg/injection, schedule: Q01DX005 (ip), vehicle: Klucel (hydroxypropylcellulose) (HPC) 99 % of control | dose: 200.0 micrograms/kg/injection, schedule: Q01DX005 (ip), vehicle: Klucel (hydroxypropylcellulose) (HPC) 100 % of control | dose: 400.0 micrograms/kg/injection, schedule: Q01DX005 (ip), vehicle: Klucel (hydroxypropylcellulose) (HPC) 111 % of control

COc1cccc2c1C(=O)c1c(OC)c(C)cc(OC)c1C2=O
inactive: dose: 1.56 mg/kg/injection, schedule: Q01DX009 (ip), vehicle: water 100 % of control | dose: 3.13 mg/kg/injection, schedule: Q01DX009 (ip), vehicle: water 107 % of control | dose: 6.25 mg/kg/injection, schedule: Q01DX009 (ip), vehicle: water 110 % of control | dose: 12.5 mg/kg/injection, schedule: Q01DX009 (ip), vehicle: water 110 % of control | dose: 25.0 mg/kg/injection, schedule: Q01DX009 (ip), vehicle: water 110 % of control

CS1(=O)=NC(=NC#N)c2ccccc21 (centres undefined)
inactive: [2] 101 % of control | [3] 94 % of control

C=C(COC(C)=O)CC(CC(=C)CC(OC(C)=O)Sc1ccccc1)S(=O)(=O)c1ccccc1 (centres undefined)
inactive: dose: 60.0 mg/kg/injection, schedule: Q01DX005 (ip), vehicle: saline + Tween-80 + alcohol 106 % of control | dose: 120.0 mg/kg/injection, schedule: Q01DX005 (ip), vehicle: saline + Tween-80 + alcohol 104 % of control | dose: 240.0 mg/kg/injection, schedule: Q01DX005 (ip), vehicle: saline + Tween-80 + alcohol 104 % of control

COc1cc(C2c3cc(O)c(OC)cc3CC(O)(CO)C2CO)ccc1O (centres undefined)
inactive: dose: 23.75 mg/kg/injection, schedule: Q01DX005 (ip), vehicle: Klucel (hydroxypropylcellulose) (HPC) 100 % of control | dose: 47.5 mg/kg/injection, schedule: Q01DX005 (ip), vehicle: Klucel (hydroxypropylcellulose) (HPC) 95 % of control | dose: 95.0 mg/kg/injection, schedule: Q01DX005 (ip), vehicle: Klucel (hydroxypropylcellulose) (HPC) 86 % of control | dose: 190.0 mg/kg/injection, schedule: Q01DX005 (ip), vehicle: Klucel (hydroxypropylcellulose) (HPC) 90 % of control

CC1(C)CC(=O)C(C2=NCCCC2)=C(O)C1
inactive: dose: 100.0 mg/kg/injection, schedule: Q04DX002 (ip), vehicle: saline with Tween-80 102 % of control | dose: 200.0 mg/kg/injection, schedule: Q04DX002 (ip), vehicle: saline with Tween-80 100 % of control | dose: 400.0 mg/kg/injection, schedule: Q04DX002 (ip), vehicle: saline with Tween-80 100 % of control

O=C1c2ccccc2C(=O)c2c(NCCCC3CCCN4CCCCC34)cccc21 (centres undefined)
inactive: [5] 105 % of control | [6] 100 % of control

CN1P(=N)(N)N=P(c2ccccc2)(c2ccccc2)N=P1(c1ccccc1)c1ccccc1 (centres undefined)
inactive: dose: 12.5 mg/kg/injection, schedule: Q01DX009 (ip), vehicle: Klucel (hydroxypropylcellulose) (HPC) 99 % of control and 113 % of control and 121 % of control | dose: 25.0 mg/kg/injection, schedule: Q01DX009 (ip), vehicle: Klucel (hydroxypropylcellulose) (HPC) 108 % of control and 115 % of control and 93 % of control | [2] 123 % of control and 88 % of control

CN(C)c1ccc(C=C2c3ccccc3C(=O)c3ccccc32)c(Cl)c1
inactive: [1] 100 % of control | dose: 100.0 mg/kg/injection, schedule: Q01DX009 (ip), vehicle: saline with Tween-80 91 % of control | dose: 200.0 mg/kg/injection, schedule: Q01DX009 (ip), vehicle: saline with Tween-80 94 % of control

O=C1CCCCC1C1=CCCCC1 (centres undefined)
inactive: [2] 109 % of control | [3] 95 % of control | [4] 100 % of control | dose: 400.0 mg/kg/injection, schedule: Q01DX009 (ip), vehicle: Klucel (hydroxypropylcellulose) (HPC) 92 % of control

C=C(C)C(=O)OC1CC2(C)OC2CCC2(C)OC2C2OC(=O)C(=C)C12 (centres undefined)
inactive: dose: 10.0 mg/kg/injection, schedule: Q01DX005 (ip), vehicle: Klucel (hydroxypropylcellulose) (HPC) 108 % of control | dose: 20.0 mg/kg/injection, schedule: Q01DX005 (ip), vehicle: Klucel (hydroxypropylcellulose) (HPC) 106 % of control | dose: 40.0 mg/kg/injection, schedule: Q01DX005 (ip), vehicle: Klucel (hydroxypropylcellulose) (HPC) 100 % of control

COc1c(C)c2c(c(C)c1Cl)Oc1c(C)c(O)c(Cl)c(C)c1C(=O)O2
inactive: dose: 1.12 mg/kg/injection, schedule: Q01DX009 (ip), vehicle: Klucel (hydroxypropylcellulose) (HPC) 112 % of control | dose: 2.25 mg/kg/injection, schedule: Q01DX009 (ip), vehicle: Klucel (hydroxypropylcellulose) (HPC) 105 % of control | dose: 4.5 mg/kg/injection, schedule: Q01DX009 (ip), vehicle: Klucel (hydroxypropylcellulose) (HPC) 108 % of control | dose: 9.0 mg/kg/injection, schedule: Q01DX009 (ip), vehicle: Klucel (hydroxypropylcellulose) (HPC) 96 % of control | dose: 18.0 mg/kg/injection, schedule: Q01DX009 (ip), vehicle: Klucel (hydroxypropylcellulose) (HPC) 102 % of control
